Measurements taken from ChEMBL document CHEMBL1201862, “PubChem BioAssay data set” (2004).
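All cell lines were grown in 96-well plates and treated with compound for 48 hours. The concentration for 50% growth inhibition is given as GI50.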 The source made the active and inactive calls. Rule as the data show it: active = GI50 up to about 1.1 µM and inactive = higher.

How the values were obtained:
Assay in all cases: inhibition of tumour cell growth, NCI panel, 48 h
NCI-H23 = test system: NCI-H23
M14 = test system: M14
RPMI-8226 = test system: RPMI-8226
SK-MEL-5 = test system: SK-MEL-5
HOP-92 = test system: HOP-92
HT-29 = test system: HT-29
HCT-15 = test system: HCT-15
MDA-N = test system: MDA-N
SF-295 = test system: SF-295
K562 = test system: K562
NCI/ADR-RES = test system: NCI/ADR-RES
CCRF-CEM = test system: CCRF-CEM
RXF 393 = test system: RXF 393
OVCAR-5 = test system: OVCAR-5
NCI-H522 = test system: NCI-H522
NCI-H460 = test system: NCI-H460
HOP-62 = test system: HOP-62
SK-OV-3 = test system: SK-OV-3
SF-539 = test system: SF-539
SW-620 = test system: SW-620

Row | SMILES | GI50 (NCI-H23) | GI50 (M14) | GI50 (RPMI-8226) | GI50 (SK-MEL-5) | GI50 (HOP-92) | GI50 (HT-29) | GI50 (HCT-15) | GI50 (MDA-N) | GI50 (SF-295) | GI50 (K562) | GI50 (NCI/ADR-RES) | GI50 (CCRF-CEM) | GI50 (RXF 393) | GI50 (OVCAR-5) | GI50 (NCI-H522) | GI50 (NCI-H460) | GI50 (HOP-62) | GI50 (SK-OV-3) | GI50 (SF-539) | GI50 (SW-620)
1 | NCCCNC1(c2cc3ccccc3s2)CCCCC1 | 15.7 µM (inactive) | 1.8 µM (inactive) | 1.91 µM (inactive) | 1.82 µM (inactive) | 11.6 µM (inactive) | 2.95 µM (inactive) | 4.49 µM | 1.78 µM (inactive) | 9.48 µM (inactive) | 1.85 µM (inactive) | 13.5 µM (inactive) | 2.48 µM (inactive) | 4.17 µM (inactive) | 13 µM (inactive) | 3.21 µM (inactive) | 1.94 µM (inactive) | 10.7 µM (inactive) | 13.5 µM (inactive) | 2.38 µM (inactive) | 4.55 µM (inactive)
2 | CC1(C)OC(CCO)CN1C(=O)OCc1ccccc1 (stereo unspecified) | > 100 µM (inactive) | > 100 µM (inactive) | > 100 µM (inactive) | > 100 µM (inactive) | > 100 µM (inactive) | – | > 100 µM | > 100 µM (inactive) | > 100 µM (inactive) | > 100 µM (inactive) | > 100 µM (inactive) | > 100 µM (inactive) | > 100 µM (inactive) | > 100 µM (inactive) | 74.6 µM (inactive) | > 100 µM (inactive) | – | > 100 µM (inactive) | > 100 µM (inactive) | > 100 µM (inactive)
3 | CS(=O)(=O)c1ccc(/N=C/C=C/Nc2ccc(S(C)(=O)=O)cc2)cc1 | > 100 µM (inactive) | > 100 µM (inactive) | > 100 µM (inactive) | > 100 µM (inactive) | > 100 µM (inactive) | > 100 µM (inactive) | > 100 µM | > 100 µM (inactive) | > 100 µM (inactive) | > 100 µM (inactive) | > 100 µM (inactive) | > 100 µM (inactive) | > 100 µM (inactive) | > 100 µM (inactive) | > 100 µM (inactive) | > 100 µM (inactive) | > 100 µM (inactive) | > 100 µM (inactive) | > 100 µM (inactive) | > 100 µM (inactive)
4 | O=C1c2cc([N+](=O)[O-])sc2C(=O)c2cc([N+](=O)[O-])sc21 | 5.26 µM (inactive) | 3.78 µM (inactive) | 0.535 µM (active) | 2.51 µM (inactive) | 1.85 µM (inactive) | 3.24 µM (inactive) | 1.73 µM | 2.34 µM (inactive) | 8.2 µM (inactive) | 0.432 µM (active) | 3.62 µM (inactive) | 0.711 µM (active) | 6.03 µM (inactive) | 7.11 µM (inactive) | 1.44 µM (inactive) | 19.4 µM (inactive) | 6.21 µM (inactive) | 10.1 µM (inactive) | 3.2 µM (inactive) | 1.72 µM (inactive)
5 | Cc1cccc2c(N)c3cccc(C(=O)NCC[N+](C)(C)Cc4ccccc4[N+](=O)[O-])c3nc12 | 5.22 µM (inactive) | 9.62 µM (inactive) | 4.84 µM (inactive) | 7.57 µM (inactive) | 10 µM (inactive) | 5.22 µM (inactive) | > 20.3 µM | 16.9 µM (inactive) | 6.32 µM (inactive) | 4.72 µM (inactive) | 8.67 µM (inactive) | 1.78 µM (inactive) | 9.64 µM (inactive) | 13 µM (inactive) | 4.94 µM (inactive) | 2.24 µM (inactive) | 7.48 µM (inactive) | 12.6 µM (inactive) | 7.94 µM (inactive) | 7.6 µM (inactive)
6 | Cn1c(=O)n2n(c1=O)Cc1cccc3cccc(c13)C2 | > 100 µM (inactive) | > 100 µM (inactive) | > 100 µM (inactive) | > 100 µM (inactive) | > 100 µM (inactive) | > 100 µM (inactive) | > 100 µM | > 100 µM (inactive) | > 100 µM (inactive) | > 100 µM (inactive) | > 100 µM (inactive) | > 100 µM (inactive) | 53.6 µM (inactive) | > 100 µM (inactive) | > 100 µM (inactive) | > 100 µM (inactive) | – | > 100 µM (inactive) | > 100 µM (inactive) | > 100 µM (inactive)
7 | O=C1c2ccccc2C2=Cc3ccccc3C(O)N12 (stereo unspecified) | > 100 µM (inactive) | > 100 µM (inactive) | 55.3 µM (inactive) | > 100 µM (inactive) | 41.3 µM (inactive) | > 100 µM (inactive) | > 100 µM | > 100 µM (inactive) | > 100 µM (inactive) | 36.1 µM (inactive) | > 100 µM (inactive) | 36.5 µM (inactive) | 26.2 µM (inactive) | > 100 µM (inactive) | 21.7 µM (inactive) | > 100 µM (inactive) | > 100 µM (inactive) | > 100 µM (inactive) | > 100 µM (inactive) | > 100 µM (inactive)
8 | O=C(Nc1ccc(Cl)c(C(F)(F)F)c1)C(=O)c1c(O)c2ccccc2oc1=O | > 100 µM (inactive) | > 100 µM (inactive) | > 100 µM (inactive) | > 100 µM (inactive) | > 100 µM (inactive) | > 100 µM (inactive) | > 100 µM | > 100 µM (inactive) | > 100 µM (inactive) | > 100 µM (inactive) | > 100 µM (inactive) | > 100 µM (inactive) | > 100 µM (inactive) | > 100 µM (inactive) | > 100 µM (inactive) | > 100 µM (inactive) | > 100 µM (inactive) | > 100 µM (inactive) | > 100 µM (inactive) | > 100 µM (inactive)
9 | CC[C@@]1(O)C(=O)OCc2c1cc1n(c2=O)Cc2c-1nc1ccccc1c2/C=N\NC(=O)C(N)=O | 0.0543 µM (active) | 0.208 µM (active) | 0.61 µM (active) | 0.222 µM (active) | 0.222 µM (active) | 4.36 µM (inactive) | 14.7 µM | 5.61 µM (inactive) | 0.151 µM (active) | 0.505 µM (active) | 1.6 µM (inactive) | < 0.01 µM (active) | 3.04 µM (inactive) | 25.8 µM (inactive) | 0.333 µM (active) | 0.0559 µM (active) | 0.107 µM (active) | 0.467 µM (active) | 0.0217 µM (active) | 1.42 µM (inactive)
10 | COC(=O)c1c(O)ccc2[nH]c3c(O)c4ccccc4cc3c12 | 23 µM (inactive) | 30.2 µM (inactive) | 17.4 µM (inactive) | 24 µM (inactive) | 29.6 µM (inactive) | 33.3 µM (inactive) | 20.5 µM | 28.4 µM (inactive) | 18.9 µM (inactive) | 47 µM (inactive) | 29.9 µM (inactive) | 20.8 µM (inactive) | 31.3 µM (inactive) | 76.9 µM (inactive) | 32 µM (inactive) | 24.1 µM (inactive) | 22.4 µM (inactive) | 33.6 µM (inactive) | 21.4 µM (inactive) | –
11 | C1COCCN1.S=C(S)N1CCOCC1 | 2.43 µM (inactive) | 12.8 µM (inactive) | 1.4 µM (inactive) | 7.59 µM (inactive) | 30 µM (inactive) | 0.811 µM (active) | 6.7 µM | 94 µM (inactive) | > 100 µM (inactive) | 1.46 µM (inactive) | > 100 µM (inactive) | 0.526 µM (active) | 2.43 µM (inactive) | 12.5 µM (inactive) | 0.973 µM (active) | 5.87 µM (inactive) | 92.3 µM (inactive) | 5.4 µM (inactive) | 43.1 µM (inactive) | 2.55 µM (inactive)
